Test results from patent US20040037799A1, “Malodor suppression by fragrance composition” (priority 2002, published 2004).

Assays:
[1] = Air diffusion coefficient of perfume materials; assay type: physicochemical
[2] = Malodor coverage by individual fragrance materials (Table 1)

With `C=C1C2CCC(C2)C1(C)C` (stereo not shown) the Air Diffusion Coefficient [1] was 0.0613 cm²/s and the “Average Coverage” value ([2]; tested only at 5 and 38 C) was 3.0.
In the case of `c1ccc(CCOC2CCCCC2)cc1`, the Air Diffusion Coefficient [1] is reported as 0.0477 cm²/s and the “Average Coverage” value ([2]; scale not defined) is reported as 2.3.
In the case of `CCCCCCCCCCC=CC#N`, the Air Diffusion Coefficient [1] is reported as 0.0432 cm²/s and the “Average Coverage” value ([2]; scale not defined) is reported as 3.0.
In the case of `CC(=O)O[C@@H]1C[C@H]2CC[C@]1(C)C2(C)C` (racemic) [ISO BORNYL ACETATE], the Air Diffusion Coefficient [1] is reported as 0.0492 cm²/s and the “Average Coverage” value ([2]; scale not defined) is reported as 2.6.
For `C=CCOC(=O)CCC1CCCCC1` [ALLYL CYCLOHEXYL PROPIONATE], the Air Diffusion Coefficient [1] was 0.0486 cm²/s and the “Average Coverage” value ([2]; scale not defined) was 2.6.
In the case of `C=CCOC(=O)CCCCCC` [ALLYL HEPTOATE (C-7), ALLYL HEPTOATE], the Air Diffusion Coefficient [1] is reported as 0.0523 cm²/s and the “Average Coverage” value ([2]; scale not defined) is reported as 2.6.
In the case of `CC(C)CCOCCc1ccccc1` [ANTHER], the Air Diffusion Coefficient [1] is reported as 0.0486 cm²/s and the “Average Coverage” value ([2]; scale not defined) is reported as 2.6.
In the case of `O=Cc1ccccc1` [BENZALDEHYDE], the Air Diffusion Coefficient [1] is reported as 0.075 cm²/s.
For `CO[C@]1(C)CC[C@@]23C[C@@H]1C(C)(C)[C@@H]2CC[C@H]3C` [CEDRAMBER], the “Average Coverage” value ([2]; scale not defined) was 2.3.
With `C[C@@H]1CC[C@H]2C(C)(C)[C@H]3C[C@@]12CC[C@@]3(C)O` [CEDROL LIQUID 10%, CEDROL] the Air Diffusion Coefficient [1] was 0.0425 cm²/s and the “Average Coverage” value ([2]; scale not defined) was 3.3.
For `CCCCCCCCCCCC#N` [CLONAL], the Air Diffusion Coefficient [1] was 0.0466 cm²/s and the “Average Coverage” value ([2]; scale not defined) was 3.0.
For `OCCC1CCCCC1` [CYCLOHEXYL ETHANOL], the Air Diffusion Coefficient [1] was 0.0629 cm²/s and the “Average Coverage” value ([2]; scale not defined) was 2.0.
With `CCCCCC1CCCC1=O` (stereo not shown) [DELPHONE, FIRMENICH] the Air Diffusion Coefficient [1] was 0.0546 cm²/s and the “Average Coverage” value ([2]; scale not defined) was 4.0.
For `CC1CCC(C(C)(C)O)CC1` (stereo not shown) [DIHYDRO TERPINEOL], the Air Diffusion Coefficient [1] was 0.0547 cm²/s and the “Average Coverage” value ([2]; scale not defined) was 2.0.
For `CCOC(=O)CC(C)=O` [ETHYL ACETOACETATE], the Air Diffusion Coefficient [1] was 0.0554 cm²/s and the “Average Coverage” value ([2]; scale not defined) was 1.6.
With `CCc1ccc(CC(C)(C)C=O)cc1` [FLORAZONE] the Air Diffusion Coefficient [1] was 0.0499 cm²/s and the “Average Coverage” value ([2]; scale not defined) was 3.6.
In the case of `CC(C)CC1CC(C)(O)CCO1` (stereo not shown) [FLOROL], the Air Diffusion Coefficient [1] is reported as 0.0521 cm²/s and the “Average Coverage” value ([2]; scale not defined) is reported as 3.0.
In the case of `CC(=O)OC/C=C(\C)CCC=C(C)C` [GERANYL ACETATE], the Air Diffusion Coefficient [1] is reported as 0.0478 cm²/s and the “Average Coverage” value ([2]; scale not defined) is reported as 1.0.
In the case of `CCCCCCC(C=O)=Cc1ccccc1` [HEXYL CINNAMIC ALDEHYDE], the Air Diffusion Coefficient [1] is reported as 0.0445 cm²/s and the “Average Coverage” value ([2]; scale not defined) is reported as 2.3.
For `CC(=O)C1(C)CC2=C(CCCC2(C)C)CC1C` (stereo not shown) [ISO E SUPER], the Air Diffusion Coefficient [1] was 0.0418 cm²/s and the “Average Coverage” value ([2]; scale not defined) was 3.3.
For `CC(C=O)Cc1ccc(C(C)(C)C)cc1` (stereo not shown) [LILIAL], the Air Diffusion Coefficient [1] was 0.047 cm²/s and the “Average Coverage” value ([2]; scale not defined) was 2.6.
In the case of `CC(C)C1CCC(CO)CC1` (stereo not shown) [MAYOL], the Air Diffusion Coefficient [1] is reported as 0.0545 cm²/s and the “Average Coverage” value ([2]; scale not defined) is reported as 2.3.
In the case of `CC(C)=CCCC(C)C=O` (stereo not shown) [MELONAL], the Air Diffusion Coefficient [1] is reported as 0.0579 cm²/s and the “Average Coverage” value ([2]; scale not defined) is reported as 2.0.
With `C=CCc1ccc(OC)cc1` [METHYL CHAVICOL] the Air Diffusion Coefficient [1] was 0.0591 cm²/s and the “Average Coverage” value ([2]; scale not defined) was 2.3.
For `COc1ccc2ccccc2c1` [NEROLIN YARA YARA 10%], the “Average Coverage” value ([2]; scale not defined) was 2.6.
For `COC(Cc1ccccc1)OC` [PADMA], the Air Diffusion Coefficient [1] was 0.0571 cm²/s and the “Average Coverage” value ([2]; scale not defined) was 3.3.
With `CC(C)OCCc1ccccc1` [PETIOLE] the “Average Coverage” value ([2]; scale not defined) was 2.6.
In the case of `OCCc1ccccc1` [PHENYL ETHYL ALCOHOL], the Air Diffusion Coefficient [1] is reported as 0.0676 cm²/s and the “Average Coverage” value ([2]; scale not defined) is reported as 4.3.
In the case of `CC(=O)OCC=C(C)C` [PRENYL ACETATE], the Air Diffusion Coefficient [1] is reported as 0.0649 cm²/s and the “Average Coverage” value ([2]; scale not defined) is reported as 1.0.
With `CC1CC(C)(c2ccccc2)CO1` (stereo not shown) [RHUBAFURAN] the “Average Coverage” value ([2]; scale not defined) was 2.6.
For `CC1=CCC2C3CC(C2C1)C1(C3)OC1C` (stereo not shown) [RHUBOFIX], the “Average Coverage” value ([2]; scale not defined) was 3.0.
In the case of `CC/C(=C\CC1CC=C(C)C1(C)C)CO` (stereo not shown) [SANDRANOL], the Air Diffusion Coefficient [1] is reported as 0.0444 cm²/s and the “Average Coverage” value ([2]; scale not defined) is reported as 3.3.
In the case of `CCC(C)(O)CCCC(C)C` (stereo not shown) [TETRAHYDRO LINAILOOL], the Air Diffusion Coefficient [1] is reported as 0.0533 cm²/s and the “Average Coverage” value ([2]; scale not defined) is reported as 2.6.
For `CC(=O)c1cc2c(cc1C)C(C)(C)C(C)CC2(C)C` (stereo not shown) [TONALID 10%], the “Average Coverage” value ([2]; scale not defined) was 2.0.
In the case of `CCCCCC1(C)CCC(C)(C)C1=O` (stereo not shown) [VELOUTONE], the Air Diffusion Coefficient [1] is reported as 0.0459 cm²/s and the “Average Coverage” value ([2]; scale not defined) is reported as 3.0.
For METHYL IONONE GAMMA, the Air Diffusion Coefficient [1] was 0.0453 cm²/s and the “Average Coverage” value ([2]; scale not defined) was 3.3.
With “METHYL NAPTHYL KETONE [METHYL NAPTHYL KETONE 10%]” the Air Diffusion Coefficient [1] was 0.0552 cm²/s and the “Average Coverage” value ([2]; scale not defined) was 2.0.
